Assay results: US20220057378A1, “MICROBIAL MICROFLUIDIC BIOSENSOR” (priority 2015, published 2022)
Like-named read-outs stand apart in the source and are kept apart here.

What was measured:
[1] = system: As3; experiment: microplate specificity test with on- and off-target heavy metals (fluorescence); assay type: cell-based, E. coli; settings: on-target = 1, no-toxin control = 0; As 1.3, Cd 0.44, Cr(VI) 2, Cu 20, Pb 1, Hg 0.1, Co 20, Fe 500, Ni 1.7, Zn 7.6 μM
Source text: (§1) Each column represents the fluorescence response of a strain to the on-target metal (normalized to “1”) and all off-target metals, where “0” represents the unchanged response for the no-toxin control.
(§2) Although the ability to sense cobalt, iron, nickel, and zinc is of secondary importance, these heavy metals were included as potential off-target inducers because they may be present in the natural water supply under test. […] This combinatorial logic was implemented in algorithms.

[2] = system: Cd1; experiment: as above; assay type: cell-based, E. coli; settings: on-target = 1, no-toxin control = 0; As 1.3, Cd 0.44, Cr(VI) 2, Cu 20, Pb 1, Hg 0.1, Co 20, Fe 500, Ni 1.7, Zn 7.6 μM
Source text: as §1, §2

[3] = system: Cr5; experiment: as above; assay type: cell-based, E. coli; settings: on-target = 1, no-toxin control = 0; As 1.3, Cd 0.44, Cr(VI) 2, Cu 20, Pb 1, Hg 0.1, Co 20, Fe 500, Ni 1.7, Zn 7.6 μM
Source text: as §1, §2

[4] = system: Cu1; experiment: as above; assay type: cell-based, E. coli; settings: on-target = 1, no-toxin control = 0; As 1.3, Cd 0.44, Cr(VI) 2, Cu 20, Pb 1, Hg 0.1, Co 20, Fe 500, Ni 1.7, Zn 7.6 μM
Source text: as §1, §2

[5] = system: Hg3; experiment: as above; assay type: cell-based, E. coli; settings: on-target = 1, no-toxin control = 0, As 1.3, Cd 0.44, Cr(VI) 2, Cu 20, Pb 1, Hg 0.1, Co 20, Fe 500, Ni 1.7, Zn 7.6 μM
Source text: as §1, §2

[6] = system: Pb2; experiment: as above; assay type: cell-based, E. coli; settings: on-target = 1, no-toxin control = 0; As 1.3, Cd 0.44, Cr(VI) 2, Cu 20, Pb 1, Hg 0.1, Co 20, Fe 500, Ni 1.7, Zn 7.6 μM
Source text: as §1, §2

[7] = system: E. coli MG1655; assay type: cell-based; settings: for Number DE Genes: false discovery rate below 1%
Source text: RNA-Seq results for promoter activation in E. coli MG1655 in response to single and multiple toxin exposures at low and high concentrations: Our analysis of the sequencing data from RNA-Seq experiments to determine candidate genes that are induced upon toxin exposure consisted of three main tasks: sequence alignment, quantification of gene expression, and identification of differentially expressed genes. Sequence alignment: Reads were aligned to the reference E. coli K-12 substr. MG1655 genome using a tolerance of at most two mismatches per alignment to protect against sequencing errors. The alignment was performed using Bowtie software, 5 which is known to be very efficient in aligning reads to a reference genome. Without being limiting, Bowtie software 5 can be used for the alignment. Those skilled in the art will appreciate that there are many such software programs for performing alignments.
Quantification of gene expression: The expression level of each gene was determined as a function of the number of aligned reads mapping to the gene. […] Additionally, we implemented our own algorithms for sequence alignment and quantification of gene expression in order to crosscheck all results.
Identification of differentially expressed genes: Finally, a set of statistical and information theory algorithms were applied in order to extract not only differentially expressed (DE) genes for each toxin with respect to the control samples (pure water) but also toxin-specific genes. DESeq is a standard tool for identifying DE genes that allowed us to select sensitive genes with differential expression between the control samples (pure water) and the cells exposed to toxin. It assumes that the number of counts for each gene across experimental replicates follows a negative binomial distribution (8, 9). We considered genes with a False Discovery Rate (FDR) lower than 1% as DE in order to ensure statistically robust DE genes. […] Additionally, genes with the largest number of counts and expression levels are preferable in order to maximize the signal-to-noise ratio. When it is not possible to find toxin-specific genes, the next generation of good candidates is formed by those genes satisfying the above properties for a small subset of toxins (multiple-toxin response). It is desirable to have single-toxin-specific genes for several of the toxins in the combination in order to determine toxin-specific multi-gene-responses by means of logical operations. […] Therefore, we have developed information theoretic measures to improve the toxin separability. The core idea of the approach is that low entropies (or highly informative genes) correspond to toxin-specific genes, while large entropies (low information) are associated with scenarios in which DE fold-changes across different toxins are similar and should be discarded.
Milestone 2.1: Expose target cells to toxins of interest over four orders of magnitude of concentration and extract RNA: Three strains of bacteria were exposed to relevant levels of all toxins and extracted RNA. The toxin exposure protocol involves first growing a culture of bacterial cells to mid-log phase (OD≤0.2). […] Finally, cellular RNA was stabilized using Qiagen RNA Protect reagent, the cells were centrifuged, and the pellet was frozen at −80° C. To investigate the cellular RNA response to toxin insult, we exposed E. coli MG1655, E. coli LABEC01, and B. subtilis 168 cells to the toxins and concentrations shown in Table 7 and extracted RNA.
Milestone 2.5: Prepare isolated RNA for Illumina sequencing using vendor provided reagents and carry out sequencing: We have prepared libraries and carried out sequencing for all toxins of interest.

[8] = system: E. coli MG1655 cells; experiment: batch growth curves of cells exposed to toxin around the EPA limit; assay type: cell-based; settings: batch culture, levels around the EPA limit
Source text: In determining the toxin concentrations for exposure, EPA limit was explored. […] The general strategy was to examine the cellular RNA response at toxin levels where the cells are responding specifically to the presence of the toxin without triggering a universal (and unspecific) cellular stress response.

[As] [Arsenic]
fluorescence response of strain As3 (on-target arsenic) [1]: 1.00
fluorescence response of strain Cd1 (on-target cadmium) [2]: −0.18
fluorescence response of strain Cr5 (on-target chromium(VI)) [3]: 0.24
fluorescence response of strain Cu1 (on-target copper) [4]: −0.05
fluorescence response of strain Hg3 (on-target mercury) [5]: 0.25
fluorescence response of strain Pb2 (on-target lead) [6]: 0.33
response of the arsR promoter ([7]; RNA-Seq mean fold change): responds specifically and monotonically to increasing concentrations
Number DE Genes ([7]; high concentration): 14
Number DE Genes ([7]; low concentration): 3

[Cd] [Cadmium]
fluorescence response of strain As3 (on-target arsenic) [1]: −0.13
fluorescence response of strain Cd1 (on-target cadmium) [2]: 1.00
fluorescence response of strain Cr5 (on-target chromium(VI)) [3]: −0.02
fluorescence response of strain Cu1 (on-target copper) [4]: −0.08
fluorescence response of strain Hg3 (on-target mercury) [5]: −0.26
fluorescence response of strain Pb2 (on-target lead) [6]: 0.46
response of the zntA promoter ([7]; RNA-Seq mean fold change): responds monotonically to increasing concentrations
Number DE Genes ([7]; high concentration): 38
Number DE Genes ([7]; low concentration): 132

[Cr+6] [Chromium(VI)]
fluorescence response of strain As3 (on-target arsenic) [1]: −0.22
fluorescence response of strain Cd1 (on-target cadmium) [2]: 0.62
fluorescence response of strain Cr5 (on-target chromium(VI)) [3]: 1.00
fluorescence response of strain Cu1 (on-target copper) [4]: −0.06
fluorescence response of strain Hg3 (on-target mercury) [5]: −0.96
fluorescence response of strain Hg3 (on-target mercury) ([5]; listed as chromium(VI)): sensitive
fluorescence response of strain Pb2 (on-target lead) [6]: 1.69
response of the recN promoter ([7]; RNA-Seq mean fold change): only shows sensitivity to high concentrations
response of the sulA promoter ([7]; RNA-Seq mean fold change): only shows sensitivity to high concentrations
response of the umuD promoter ([7]; RNA-Seq mean fold change): only shows sensitivity to high concentrations
Number DE Genes ([7]; high concentration): 377
Number DE Genes ([7]; low concentration): 270
growth phase lag of cells exposed to toxin [8]: exhibited this growth phase lag

Mercury
fluorescence response of strain As3 (on-target arsenic) [1]: −0.18
fluorescence response of strain Cd1 (on-target cadmium) [2]: −0.09
fluorescence response of strain Cr5 (on-target chromium(VI)) [3]: 0.58
fluorescence response of strain Cu1 (on-target copper) [4]: −0.05
fluorescence response of strain Hg3 (on-target mercury) [5]: 1.00
fluorescence response of strain Pb2 (on-target lead) [6]: 1.44
Number DE Genes ([7]; high concentration): 218
Number DE Genes ([7]; low concentration): 165
growth phase lag of cells exposed to toxin [8]: did not exhibit this growth phase lag

[Cu] [Copper]
fluorescence response of strain Cd1 (on-target cadmium) [2]: −0.09
fluorescence response of strain Cr5 (on-target chromium(VI)) [3]: −0.08
fluorescence response of strain Cu1 (on-target copper) [4]: 1.00
fluorescence response of strain Hg3 (on-target mercury) [5]: 0.16
fluorescence response of strain Pb2 (on-target lead) [6]: −0.17
response of the cusC promoter ([7]; RNA-Seq mean fold change): responds monotonically to increasing concentrations
response of the cusR promoter ([7]; RNA-Seq mean fold change): only shows sensitivity to high concentrations
Number DE Genes ([7]; high concentration): 77
Number DE Genes ([7]; low concentration): 110
growth phase lag of cells exposed to toxin [8]: delay the onset of the exponential growth phase

[Pb] [Lead]
fluorescence response of strain As3 (on-target arsenic) [1]: −0.05
fluorescence response of strain Cd1 (on-target cadmium) [2]: 0.06
fluorescence response of strain Cr5 (on-target chromium(VI)) [3]: 0.01
fluorescence response of strain Cu1 (on-target copper) [4]: −0.05
fluorescence response of strain Hg3 (on-target mercury) [5]: 0.12
fluorescence response of strain Pb2 (on-target lead) [6]: 1.00
response of the mntH promoter ([7]; RNA-Seq mean fold change): responds to high concentrations
response of the shiA promoter ([7]; RNA-Seq mean fold change): responds to high concentrations
response of the ybiI promoter ([7]; RNA-Seq mean fold change): responds specifically and monotonically to increasing concentrations
Number DE Genes ([7]; high concentration): 489
Number DE Genes ([7]; low concentration): 99
